Calls of active or inactive are those of the source. The calls are words filed in the database; no cut-off is given here.

Data on 6 compounds can be found in ChEMBL document CHEMBL5550127, “1,2,3-Triazole-totarol conjugates as potent PIP5K1α lipid kinase inhibitors” (Bioorg Med Chem, 2024).

Assay [1] deals with LNCaP. Put plainly: Induction of morphological changes in human LNCaP cells assessed as change in cell shape at 10 uM measured after 0 to 72 hrs by IncuCyte live-cell imaging based phase contrast microscopic analysis. In kind it is functional. The note with it: time 0-72 hrs.
Assay [2] relates to DU-145. Description: Induction of morphological changes in human DU-145 cells assessed as change in cell shape at 10 uM measured after 0 to 72 hrs by IncuCyte live-cell imaging based phase contrast microscopic analysis. It counts as functional. The note with it: time 0-72 hrs.
The test system of assay [3] is LNCaP. Put plainly: Antiproliferative activity against human LNCaP cells assessed as inhibition of cell growth by measuring reduction in cell confluence at 1 to 5 uM measured every 2 hrs for 72 hrs by IncuCyte live-cell imaging analysis. In kind it is functional, cell-based. The settings on record: dose 1-5 µM.
For assay [4], the system named is DU-145. Description: Antiproliferative activity against human DU-145 cells assessed as inhibition of cell growth by measuring reduction in cell confluence at 10 to 20 uM measured every 2 hrs for 72 hrs by IncuCyte live-cell imaging analysis. The settings on record: dose 10-20 µM. It counts as functional, cell-based.
Assay [5] has as its system DU-145. Description: Antiproliferative activity against human DU-145 cells assessed as inhibition of cell growth by measuring reduction in cell confluence at 1 to 5 uM measured every 2 hrs for 72 hrs by IncuCyte live-cell imaging analysis. It counts as functional, cell-based. The settings on record: dose 1-5 µM.
For assay [6], the system named is DU-145. Put plainly: cells. The settings on record: Homo sapiens, DU-145, 72 h.
Description: Antiproliferative activity against human DU-145 cells assessed as inhibition of cell growth measured after 72 hrs by IncuCyte live-cell imaging analysis
The test system of assay [7] is DU-145. Put plainly: Antiproliferative activity against human DU-145 cells assessed as inhibition of cell growth by measuring negative AUC values at 20 uM measured after 48 hrs by IncuCyte live-cell imaging analysis. It counts as functional, cell-based.
Assay [8] deals with PC-3. Put plainly: Antiproliferative activity against human PC-3 cells assessed as inhibition of cell growth by measuring negative AUC values at 20 uM measured after 48 hrs by IncuCyte live-cell imaging analysis. In kind it is functional, cell-based.
Assay [9] relates to PC-3. Put plainly: Antiproliferative activity against human PC-3 cells assessed as inhibition of cell growth by measuring reduction in cell confluence at 10 to 20 uM measured every 2 hrs for 72 hrs by IncuCyte live-cell imaging analysis. The note with it: dose 10-20 µM. It counts as functional, cell-based.
Assay [10] relates to LNCaP. Description: Antiproliferative activity against human LNCaP cells assessed as inhibition of cell growth by measuring reduction in cell confluence at 10 to 20 uM measured every 2 hrs for 72 hrs by IncuCyte live-cell imaging analysis. It counts as functional, cell-based. The note with it: dose 10-20 µM.
Assay [11] concerns LNCaP. Description: Antiproliferative activity against human LNCaP cells assessed as inhibition of cell growth by measuring negative AUC values at 20 uM measured after 48 hrs by IncuCyte live-cell imaging analysis. In kind it is functional, cell-based.
The test system of assay [12] is LNCaP. Put plainly: cells. The note with it: Homo sapiens, 72 h.
Description: Antiproliferative activity against human LNCaP cells assessed as inhibition of cell growth measured after 72 hrs by IncuCyte live-cell imaging analysis
Assay [13] has as its system PC-3. Description: Induction of morphological changes in human PC-3 cells assessed as change in cell shape at 10 uM measured after 0 to 72 hrs by IncuCyte live-cell imaging based phase contrast microscopic analysis. It counts as functional. The settings on record: time 0-72 hrs.
Assay [14] concerns DU-145. Description: Induction of morphological changes in human DU-145 cells assessed as change in number of cells at 10 uM measured after 0 to 72 hrs by IncuCyte live-cell imaging based phase contrast microscopic analysis. It counts as functional. The settings on record: time 0-72 hrs.
Assay [15] concerns PC-3. Description: Induction of morphological changes in human PC-3 cells assessed as change in number of cells at 10 uM measured after 0 to 72 hrs by IncuCyte live-cell imaging based phase contrast microscopic analysis. It counts as functional. The note with it: time 0-72 hrs.
In assay [16] the test system is PC-3. Description: cells. The note with it: Homo sapiens, PC-3, 72 h.
Description: Antiproliferative activity against human PC-3 cells assessed as inhibition of cell growth measured after 72 hrs by IncuCyte live-cell imaging analysis
Assay [17] concerns LNCaP. Put plainly: Induction of morphological changes in human LNCaP cells assessed as change in number of cells at 10 uM measured after 0 to 72 hrs by IncuCyte live-cell imaging based phase contrast microscopic analysis. It counts as functional. The settings on record: time 0-72 hrs.
In assay [18] the test system is LNCaP. Description: Antiproliferative activity against human LNCaP cells assessed as inhibition of cell growth by measuring reduction in cell confluence at 5 to 20 uM measured every 2 hrs for 48 hrs by IncuCyte live-cell imaging analysis. It counts as functional, cell-based. The settings on record: dose 5-20 µM.
Assay [19] has as its target Casein kinase 2 (Homo sapiens, UniProt P67870+P68400+P19784+Q8NEV1). Put plainly: Inhibition of CK2 (unknown origin) using RRRDDDSDDD-EDANS as substrate measured after 15 mins by capillary electrophoresis. In kind it is protein assay.
Assay [20] has as its target Phosphatidylinositol 4-phosphate 5-kinase type-1 alpha (Homo sapiens) (UniProt Q99755). Description: Inhibition of recombinant human PIP5K1alpha expressed in Escherichia coli BL21 (DE3) using phosphatidylinositol-4-phosphate as substrate at 1 to 10 uM preincubated for 10 mins followed by substrate and ATP addition and further incubated under dark condition with constant shaking for 30 mins by capillary electrophoresis. The note with it: dose 1-10 µM, time 40.0 min.

For assay [21] the target is unchanged. Description: Inhibition of recombinant human PIP5K1alpha expressed in Escherichia coli BL21 (DE3) using phosphatidylinositol-4-phosphate as substrate at 10 uM preincubated for 10 mins followed by substrate and ATP addition and further incubated under dark condition with constant shaking for 30 mins by capillary electrophoresis. The settings on record: time 40.0 min.

For assay [22], the system named is LNCaP. Description: Antiproliferative activity against human LNCaP cells assessed as inhibition of cell growth by measuring reduction in cell confluence at 20 uM measured every 2 hrs for 48 hrs by IncuCyte live-cell imaging analysis. In kind it is functional, cell-based.

Phosphatidylinositol 4-phosphate 5-kinase type-1 alpha (Homo sapiens), sequence (Q99755 whole entry): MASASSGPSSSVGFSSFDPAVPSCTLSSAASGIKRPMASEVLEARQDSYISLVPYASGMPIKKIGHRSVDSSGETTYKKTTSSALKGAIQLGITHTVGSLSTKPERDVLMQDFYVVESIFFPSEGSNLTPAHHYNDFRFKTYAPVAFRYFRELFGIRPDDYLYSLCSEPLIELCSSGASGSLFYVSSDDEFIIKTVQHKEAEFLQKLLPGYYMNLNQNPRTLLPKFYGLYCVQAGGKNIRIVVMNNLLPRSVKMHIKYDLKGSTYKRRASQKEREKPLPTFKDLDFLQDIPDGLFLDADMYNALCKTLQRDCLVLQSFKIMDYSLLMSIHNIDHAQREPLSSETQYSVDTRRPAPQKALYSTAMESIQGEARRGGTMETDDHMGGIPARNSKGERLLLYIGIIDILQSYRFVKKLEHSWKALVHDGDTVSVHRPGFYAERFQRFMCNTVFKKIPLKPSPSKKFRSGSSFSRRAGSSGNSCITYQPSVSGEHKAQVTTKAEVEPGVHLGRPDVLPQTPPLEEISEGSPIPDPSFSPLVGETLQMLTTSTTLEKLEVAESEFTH

Regarding `CC(C)c1c(OCc2cn(C3=CCC4C(=O)N(CCN(C)C)C(=O)c5cccc3c54)nn2)ccc2c1CC[C@H]1C(C)(C)CCC[C@]21C` (stereo partly drawn), the result in [1], in assay [2], in assay [4], in assay [7], in [8] and in assay [9] was Active. The outcome in [10], in [11], in [13], in assay [14], in [15] and in assay [17] was Active. Besides, the result in assay [3] and in [5] was inactive. Besides, the EC50 came to 8.57 µM in [6], 15.7 µM in assay [12] and 4.89 µM in assay [16].

On to `CN(C)CCN1C(=O)c2cccc3c(-n4cc(CO)nn4)ccc(c23)C1=O`, for which the outcome in [18] was Active.

On to `CC(C)c1c(OCc2cn(-c3cccc([N+](=O)[O-])c3)nn2)ccc2c1CC[C@H]1C(C)(C)CCC[C@]21C`, for which the IC50 in assay [19] came out at 0.91 µM. This counts as sub-micromolar.

On to `CCCCCCCCCCCn1cc(COc2ccc3c(c2C(C)C)CC[C@H]2C(C)(C)CCC[C@]32C)nn1`, for which the inhibition entry in assay [20] is “inactive”.

Take `COc1ccc(-n2cc(COc3ccc4c(c3C(C)C)CC[C@H]3C(C)(C)CCC[C@]43C)nn2)cc1`: in assay [19], the IC50 is 4.1 µM.

Regarding `CC(C)c1c(O)ccc2c1CC[C@H]1C(C)(C)CCC[C@]21C`, the inhibition result in assay [21] was “inactive”. In addition, in [22], the outcome was inactive.
